From patent publication US8039616B2, “Benzodiazepine derivatives for treating hepatitis C infection” (AstraZeneca AB, priority 2005, dated 2011) come the findings set out here.

The test has as its target T1, HCV Polymerase (Hepatitis C virus genotype 1a, UniProt P27958).
T1 construct: the HCV Polymerase was expressed and purified by Prof Alistair Hawkins; made in house
The test is described as follows: Polymerase 96 well microtitre plate based IC50 assay (33P-UTP incorporation, streptavidin FlashPlates). The note with it: polyA/biotinylated-U13 template-primer, 100 minutes at 25° C. It is filed as biochemical. From the text: Polymerase 96 Well Microtitre Plate Based IC50 Assay
Inhibitors of HCV Polymerase can be detected radioactively by monitoring the incorporation of ^33P-UTP within an RNA template/Bi-primer system using streptavidin coated FlashPlates. The template and primer for the reaction can be bought externally from Amersham (Poly A) and MWG-Dharmacon (Biotinylated-U13). The cold UTP can be purchased from Roche and the HCV Polymerase was expressed and purified by Prof Alistair Hawkins at Newcastle University, UK.
50 μl substrate, 40 μl enzyme, 10 μl compound=100 μl assay
Compounds are diluted so that DMSO remains 10% at all times. E.g. 5 μl compound (10 mM)+5 μl DMSO+90 μl Buffer (see below for buffer)
Some 20 mM Tris-HCl, pH 7.5, 5 mM MgCl2, 25 mM KCL, 3 mM DTT and 0.05% BSA is made up.
The PolyA and Biotinylated U13 are annealed at 70° C. for 5 minutes to 40 μM U13 (212 μg/ml polyA.) and cooled gently on ice prior to use (110 μl primer (80 μM)+5.5 μl poly A+104.5 μl dH20.). Some 200 μl annealed primer/template is mixed with 12.8 μl UTP (1 mM stock), 25.6 μl 33p-UTP and 31761.6 μl Buffer to make the substrate mix.
From IC50 dilution plates 10 μl are transferred from column 3 into columns 3 and 3 on two separate assay plates. This is repeated for all compound dilutions to 2 separate assay plates. Then 10 μl 10% DMSO solution is added to positive and negative controls (see plate map below). In addition, 40 μl 20 mM Tris-HCl buffer is added to negative controls.
Then 50 μl substrate mix is added to all wells.
Then 40 μl enzyme mix each is added to all other wells and the reaction is left for 100 minutes shaking at 25° C.
The reaction is terminated with the addition of 100 μl, 100 mM EDTA and the volume is transferred to a streptavidin coated flash plate, covered and left for an hour.
All plates are washed three times in SkanWasher plate-washer (Skatron Instruments) under programme ‘AH’. The wash buffer contains, 0.01M phosphate buffer, 0.0027M potassium chloride and 0.137M sodium chloride, pH 7.4 at 25° C., 0.05% Tween
All plate are recovered and the cpmB read in the TopCount (supplied by DPM solutions), protocol 6.

Bounds are passed on as bounds.

T1 sequence (P27958 2421-3011): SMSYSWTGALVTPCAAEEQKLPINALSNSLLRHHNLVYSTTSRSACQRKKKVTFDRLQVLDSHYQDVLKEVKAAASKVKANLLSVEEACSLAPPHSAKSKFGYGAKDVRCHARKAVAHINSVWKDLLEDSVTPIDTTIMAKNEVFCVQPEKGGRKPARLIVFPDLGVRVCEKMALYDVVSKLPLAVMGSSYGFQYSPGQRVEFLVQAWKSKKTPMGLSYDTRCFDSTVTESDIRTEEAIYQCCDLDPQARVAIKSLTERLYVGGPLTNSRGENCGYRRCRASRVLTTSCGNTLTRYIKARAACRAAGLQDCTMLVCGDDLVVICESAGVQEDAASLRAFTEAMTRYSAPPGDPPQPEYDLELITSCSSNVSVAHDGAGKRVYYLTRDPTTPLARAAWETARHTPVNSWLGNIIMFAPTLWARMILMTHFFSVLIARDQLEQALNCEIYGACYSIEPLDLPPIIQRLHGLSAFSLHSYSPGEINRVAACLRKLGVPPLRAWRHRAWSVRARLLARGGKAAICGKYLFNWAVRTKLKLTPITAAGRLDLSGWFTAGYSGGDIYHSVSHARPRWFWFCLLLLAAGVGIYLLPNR

Regarding `CCOc1ccccc1C(=O)N[C@H]1N=C(c2ccc(Cl)cc2)c2ccccc2NC1=O` [Example 2, (S)—N-[5-(4-Chloro-phenyl)-2-oxo-2,3-dihydro-1H-benzo[e][1,4]diazepin-3-yl]-2-ethoxy-benzamide], the IC50 is > 1000 nM.

For the molecule `COc1ccc(OC)c(C(=O)N[C@@H]2N=C(c3ccc(Cl)cc3)c3ccccc3NC2=O)c1` [Example 5, (R)—N-[5-(4-Chloro-phenyl)-2-oxo-2,3-dihydro-1H-benzo[e][1,4]diazepin-3-yl]-2,5-dimethoxy-benzamide], the IC50 is > 1000 nM. `COc1ccc(Cl)cc1C(=O)NC1N=C(c2ccc(Cl)cc2)c2ccccc2NC1=O` (stereo not drawn) [Example 9, 5-Chloro-N-[5-(4-chloro-phenyl)-2-oxo-2,3-dihydro-1H-benzo[e][1,4]diazepin-3-yl]-2-methoxy-benzamide]: the IC50 is < 1000 nM. `COc1ccc(Cl)cc1C(=O)N[C@H]1N=C(c2ccc(Cl)cc2)c2ccccc2NC1=O` [Example 10, (S)-5-Chloro-N-[5-(4-chloro-phenyl)-2-oxo-2,3-dihydro-1H-benzo[e][1,4]diazepin-3-yl]-2-methoxy-benzamide]: the IC50 was < 1000 nM. The value for `COc1ccc(OC)c(C(=O)NC2N=C(c3ccc(Cl)cc3)c3ccccc3NC2=O)c1` (stereo not drawn) [Example 3, N-[5-(4-Chloro-phenyl)-2-oxo-2,3-dihydro-1H-benzo[e][1,4]diazepin-3-yl]-2,5-dimethoxy-benzamide] was < 1000 nM.

`COc1ccc(F)cc1C(=O)N[C@H]1N=C(c2ccc(Cl)cc2)c2ccccc2NC1=O` [Example 7, (S)—N-[5-(4-Chloro-phenyl)-2-oxo-2,3-dihydro-1H-benzo[e][1,4]diazepin-3-yl]-5-fluoro-2-methoxy-benzamide]: the IC50 was > 1000 nM. Take `COc1ccc(F)cc1C(=O)N[C@@H]1N=C(c2ccc(Cl)cc2)c2ccccc2NC1=O` [Example 8, (R)—N-[5-(4-Chloro-phenyl)-2-oxo-2,3-dihydro-1H-benzo[e][1,4]diazepin-3-yl]-5-fluoro-2-methoxy-benzamide]: the IC50 is > 1000 nM. In the case of `COc1ccc(Cl)cc1C(=O)N[C@@H]1N=C(c2ccc(Cl)cc2)c2ccccc2NC1=O` [Example 11, (R)-5-Chloro-N-[5-(4-chloro-phenyl)-2-oxo-2,3-dihydro-1H-benzo[e][1,4]diazepin-3-yl]-2-methoxy-benzamide], the half-inhibitory concentration (IC50) was > 1000 nM. Next, `COc1ccc(OC)c(C(=O)N[C@H]2N=C(c3ccc(Cl)cc3)c3ccccc3NC2=O)c1` [Example 4, (S)—N-[5-(4-Chloro-phenyl)-2-oxo-2,3-dihydro-1H-benzo[e][1,4]diazepin-3-yl]-2,5-dimethoxy-benzamide]: < 1000 nM; `O=C(NC1N=C(c2ccc(Cl)cc2)c2ccccc2NC1=O)c1sccc1Br` (stereo not drawn) [Example 12, 3-Bromo-thiophene-2-carboxylic acid [5-(4-chloro-phenyl)-2-oxo-2,3-dihydro-1H-benzo[e][1,4]diazepin-3-yl]-amide]: > 1000 nM. The value for `COc1ccc(F)cc1C(=O)NC1N=C(c2ccc(Cl)cc2)c2ccccc2NC1=O` (stereo not drawn) [Example 6, N-[5-(4-Chloro-phenyl)-2-oxo-2,3-dihydro-1H-benzo[e][1,4]diazepin-3-yl]-5-fluoro-2-methoxy-benzamide] was > 1000 nM; that for `CCOc1ccccc1C(=O)NC1N=C(c2ccc(Cl)cc2)c2ccccc2NC1=O` (stereo not drawn) [Example 1, N-[5-(4-Chloro-phenyl)-2-oxo-2,3-dihydro-1H-benzo[e][1,4]diazepin-3-yl]-2-ethoxy-benzamide] was > 1000 nM.

The IC50 is the concentration needed to halve the response being measured.
